Patent US11572399B2, “Long-acting GIP peptide analogues” (University of Copenhagen, priority 2017, dated 2023)
Peptide text beside a SMILES is read from it. * marks the point of attachment. C16 diacid = O=C(O)CCCCCCCCCCCCCCC(=O)*; Palmitoyl = CCCCCCCCCCCCCCCC(=O)*

Biological target: T1, human GIP receptor (Homo sapiens, UniProt P48546)
T1 construct: host or cells: COS-7, transient transfection (calcium phosphate), cDNA in pCMV-Script
T1 sequence (P48546 22-466): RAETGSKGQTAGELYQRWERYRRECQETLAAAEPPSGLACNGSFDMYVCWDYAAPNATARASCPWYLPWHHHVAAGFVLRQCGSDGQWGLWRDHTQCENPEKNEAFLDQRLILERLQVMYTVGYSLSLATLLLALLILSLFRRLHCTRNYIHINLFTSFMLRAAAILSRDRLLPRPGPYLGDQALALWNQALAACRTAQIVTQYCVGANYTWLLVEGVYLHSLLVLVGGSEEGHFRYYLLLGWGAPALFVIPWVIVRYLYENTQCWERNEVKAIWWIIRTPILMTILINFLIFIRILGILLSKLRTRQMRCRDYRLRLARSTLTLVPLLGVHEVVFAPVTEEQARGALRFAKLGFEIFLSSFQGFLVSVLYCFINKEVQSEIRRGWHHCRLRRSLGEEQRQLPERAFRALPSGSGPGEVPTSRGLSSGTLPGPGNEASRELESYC
Assay: cAMP accumulation assay, agonism (ligand alone)
Format: cell-based
Conditions: COS-7 cells, Table 1; for Emax: COS-7, intrinsic cAMP activity; for EC50: read-out: cAMP agonism nM (EC50)
Protocol: COS-7 cells were cultured at 10% CO2 and 37° C. in Dulbecco's modified Eagle's medium 1885 supplemented with 10% fetal bovine serum, 2 mM glutamine, 180 units/ml penicillin, and 45 µg/ml streptomycin. Transient transfection of the COS-7 cells for cAMP accumulation and competition binding was performed using the calcium phosphate precipitation method with the addition of chloroquine^46-47.
Transient transfected COS-7 cells expressing the human GIP receptor were seeded in white 96-well plates with a density of 3.5*10^4/well. The day after, the cells were washed twice with Hepes buffered saline (HBS) buffer and incubated with HBS and 1 mM 3-isobutyl-1-methylxanthine (IBMX) for 30 min at 37° C. To test for agonistic properties, ligands were added and incubated for 30 min at 37° C. In order to test for antagonistic properties, the cells were preincubated with the antagonists for 10 min prior to the addition of the agonist and subsequent incubated for 20 additional min. The HitHunter™ cAMP XS assay (DiscoveRx) was carried out according to the manufacturer's instructions.
IC50, EC50, and Ki values were determined by nonlinear regression. These were carried out with the GraphPad Prism 6.0 software (GraphPad, San Diego, Calif., USA) and Microsoft Excel™. Ki values were based on the formula for one class of binding sites in homologous competition binding studies and the Cheng Prussoffs formula, respectively (DeBlasi et al., 1989). To determine the HSA binding potential, the fold change in affinity (as determined by IC50) was calculated as IC50 (plus HSA)/IC50 (minus HSA).

SMILES	Emax [%]	EC50 [nM]	cAMP agonism Emax (intrinsic cAMP activity)
CCCCCCCCCCCCCCCC(=O)NCCCC[C@H](NC(=O)[C@@H](NC(=O)[C@H](CCCNC(=N)N)NC(=O)[C@H](CC(=O)O)NC(=O)[C@H](CCSC)NC(=O)[C@H](C)NC(=O)[C@@H](NC(=O)[C@H](CO)NC(=O)[C@H](Cc1ccc(O)cc1)NC(=O)[C@H](CC(=O)O)NC(=O)[C@H](CO)NC(=O)[C@@H](NC(=O)[C@H](Cc1ccccc1)NC(=O)[C@@H](NC(=O)CNC(=O)[C@@H](N)CCC(=O)O)[C@@H](C)O)[C@@H](C)CC)[C@@H](C)CC)[C@@H](C)CC)C(=O)N[C@@H](CCC(N)=O)C(=O)N[C@@H](CCC(N)=O)C(=O)N[C@@H](CC(=O)O)C(=O)N[C@@H](Cc1ccccc1)C(=O)N[C@H](C(=O)N[C@@H](CC(N)=O)C(=O)N[C@@H](Cc1c[nH]c2ccccc12)C(=O)N[C@@H](CC(C)C)C(=O)N[C@@H](CC(C)C)C(=O)N[C@@H](C)C(=O)N[C@@H](CCC(N)=O)C(=O)N[C@@H](CCCNC(=N)N)C(N)=O)C(C)C [AT144, [hGIP(3-30)NH2[K16R; H18K; K30R]-C16/18]] (H-EGTFISDYSIAMDRIK(Palmitoyl)QQDFVNWLLAQR-NH2; N-terminus assumed)	0		
CC[C@H](C)[C@H](NC(=O)[C@H](CO)NC(=O)[C@H](Cc1ccc(O)cc1)NC(=O)[C@H](CC(=O)O)NC(=O)[C@H](CO)NC(=O)[C@@H](NC(=O)[C@H](Cc1ccccc1)NC(=O)[C@@H](NC(=O)CNC(=O)[C@H](CCC(=O)O)NC(=O)CCCCCCCCCCC(=O)O)[C@@H](C)O)[C@@H](C)CC)C(=O)N[C@@H](C)C(=O)N[C@@H](CCSC)C(=O)N[C@@H](CC(=O)O)C(=O)N[C@@H](CCCCN)C(=O)N[C@H](C(=O)N[C@@H](CCCNC(=N)N)C(=O)N[C@@H](CCC(N)=O)C(=O)N[C@@H](CCC(N)=O)C(=O)N[C@@H](CC(=O)O)C(=O)N[C@@H](Cc1ccccc1)C(=O)N[C@H](C(=O)N[C@@H](CC(N)=O)C(=O)N[C@@H](Cc1c[nH]c2ccccc12)C(=O)N[C@@H](CC(C)C)C(=O)N[C@@H](CC(C)C)C(=O)N[C@@H](C)C(=O)N[C@@H](CCC(N)=O)C(=O)N[C@@H](CCCNC(=N)N)C(N)=O)C(C)C)[C@@H](C)CC [AT149, [hGIP(3-30)NH2[H18R; K30R]-C12diacid/3]]	50	24	
CC[C@H](C)[C@H](NC(=O)[C@H](CO)NC(=O)[C@H](Cc1ccc(O)cc1)NC(=O)[C@H](CC(=O)O)NC(=O)[C@H](CO)NC(=O)[C@@H](NC(=O)[C@H](Cc1ccccc1)NC(=O)[C@@H](N)CCCCNC(=O)CCCCCCCCCCCCCCC(=O)O)[C@@H](C)CC)C(=O)N[C@@H](C)C(=O)N[C@@H](CCSC)C(=O)N[C@@H](CC(=O)O)C(=O)N[C@@H](CCCCN)C(=O)N[C@H](C(=O)N[C@@H](Cc1c[nH]cn1)C(=O)N[C@@H](CCC(N)=O)C(=O)N[C@@H](CCC(N)=O)C(=O)N[C@@H](CC(=O)O)C(=O)N[C@@H](Cc1ccccc1)C(=O)N[C@H](C(=O)N[C@@H](CC(N)=O)C(=O)N[C@@H](Cc1c[nH]c2ccccc12)C(=O)N[C@@H](CC(C)C)C(=O)N[C@@H](CC(C)C)C(=O)N[C@@H](C)C(=O)N[C@@H](CCC(N)=O)C(=O)N[C@@H](CCCCN)C(N)=O)C(C)C)[C@@H](C)CC [AT293, [hGIP(5-30)NH2[T5KK]-C16diacid/5]]	0		
CC[C@H](C)[C@H](NC(=O)[C@H](CO)NC(=O)[C@H](Cc1ccc(O)cc1)NC(=O)[C@H](CC(=O)O)NC(=O)[C@H](CO)NC(=O)[C@@H](NC(=O)[C@H](Cc1ccccc1)NC(=O)[C@@H](NC(=O)CNC(=O)[C@@H](N)CCCCNC(=O)CCCCCCCCCCCCCCC(=O)O)[C@@H](C)O)[C@@H](C)CC)C(=O)N[C@@H](C)C(=O)N[C@@H](CCSC)C(=O)N[C@@H](CC(=O)O)C(=O)N[C@@H](CCCCN)C(=O)N[C@H](C(=O)N[C@@H](Cc1c[nH]cn1)C(=O)N[C@@H](CCC(N)=O)C(=O)N[C@@H](CCC(N)=O)C(=O)N[C@@H](CC(=O)O)C(=O)N[C@@H](Cc1ccccc1)C(=O)N[C@H](C(=O)N[C@@H](CC(N)=O)C(=O)N[C@@H](Cc1c[nH]c2ccccc12)C(=O)N[C@@H](CC(C)C)C(=O)N[C@@H](CC(C)C)C(=O)N[C@@H](C)C(=O)N[C@@H](CCC(N)=O)C(=O)N[C@@H](CCCCN)C(N)=O)C(C)C)[C@@H](C)CC [AT294, [hGIP(3-30)NH2[E3K]-C16diacid/3]]	74		
CC[C@H](C)[C@H](NC(=O)[C@H](CO)NC(=O)[C@H](Cc1ccc(O)cc1)NC(=O)[C@H](CC(=O)O)NC(=O)[C@H](CO)NC(=O)[C@@H](NC(=O)[C@H](Cc1ccccc1)NC(=O)[C@@H](NC(=O)[C@H](CCCCNC(=O)CCCCCCCCCCCCCCC(=O)O)NC(=O)[C@@H](N)CCC(=O)O)[C@@H](C)O)[C@@H](C)CC)C(=O)N[C@@H](C)C(=O)N[C@@H](CCSC)C(=O)N[C@@H](CC(=O)O)C(=O)N[C@@H](CCCCN)C(=O)N[C@H](C(=O)N[C@@H](Cc1c[nH]cn1)C(=O)N[C@@H](CCC(N)=O)C(=O)N[C@@H](CCC(N)=O)C(=O)N[C@@H](CC(=O)O)C(=O)N[C@@H](Cc1ccccc1)C(=O)N[C@H](C(=O)N[C@@H](CC(N)=O)C(=O)N[C@@H](Cc1c[nH]c2ccccc12)C(=O)N[C@@H](CC(C)C)C(=O)N[C@@H](CC(C)C)C(=O)N[C@@H](C)C(=O)N[C@@H](CCC(N)=O)C(=O)N[C@@H](CCCCN)C(N)=O)C(C)C)[C@@H](C)CC [AT295, [hGIP(3-30)NH2[G4K]-C16diacid/4]]	78.6	2.6	
CC[C@H](C)[C@H](NC(=O)[C@H](CO)NC(=O)[C@H](CCCCNC(=O)CCCCCCCCCCCCCCC(=O)O)NC(=O)[C@H](CC(=O)O)NC(=O)[C@H](CO)NC(=O)[C@@H](NC(=O)[C@H](Cc1ccccc1)NC(=O)[C@@H](NC(=O)CNC(=O)[C@@H](N)CCC(=O)O)[C@@H](C)O)[C@@H](C)CC)C(=O)N[C@@H](C)C(=O)N[C@@H](CCSC)C(=O)N[C@@H](CC(=O)O)C(=O)N[C@@H](CCCCN)C(=O)N[C@H](C(=O)N[C@@H](Cc1c[nH]cn1)C(=O)N[C@@H](CCC(N)=O)C(=O)N[C@@H](CCC(N)=O)C(=O)N[C@@H](CC(=O)O)C(=O)N[C@@H](Cc1ccccc1)C(=O)N[C@H](C(=O)N[C@@H](CC(N)=O)C(=O)N[C@@H](Cc1c[nH]c2ccccc12)C(=O)N[C@@H](CC(C)C)C(=O)N[C@@H](CC(C)C)C(=O)N[C@@H](C)C(=O)N[C@@H](CCC(N)=O)C(=O)N[C@@H](CCCCN)C(N)=O)C(C)C)[C@@H](C)CC [AT301, [hGIP(3-30)NH2[Y10K]-C16diacid/10]] (H-EGTFISDK(C16 diacid)SIAMDKIHQQDFVNWLLAQK-NH2; N-terminus assumed)	8.5	12	
CC[C@H](C)[C@H](NC(=O)[C@H](CCCCNC(=O)CCCCCCCCCCCCCCC(=O)O)NC(=O)[C@H](Cc1ccc(O)cc1)NC(=O)[C@H](CC(=O)O)NC(=O)[C@H](CO)NC(=O)[C@@H](NC(=O)[C@H](Cc1ccccc1)NC(=O)[C@@H](NC(=O)CNC(=O)[C@@H](N)CCC(=O)O)[C@@H](C)O)[C@@H](C)CC)C(=O)N[C@@H](C)C(=O)N[C@@H](CCSC)C(=O)N[C@@H](CC(=O)O)C(=O)N[C@@H](CCCCN)C(=O)N[C@H](C(=O)N[C@@H](Cc1c[nH]cn1)C(=O)N[C@@H](CCC(N)=O)C(=O)N[C@@H](CCC(N)=O)C(=O)N[C@@H](CC(=O)O)C(=O)N[C@@H](Cc1ccccc1)C(=O)N[C@H](C(=O)N[C@@H](CC(N)=O)C(=O)N[C@@H](Cc1c[nH]c2ccccc12)C(=O)N[C@@H](CC(C)C)C(=O)N[C@@H](CC(C)C)C(=O)N[C@@H](C)C(=O)N[C@@H](CCC(N)=O)C(=O)N[C@@H](CCCCN)C(N)=O)C(C)C)[C@@H](C)CC [AT302, [hGIP(3-30)NH2[S11K]-C16diacid/11]] (H-EGTFISDYK(C16 diacid)IAMDKIHQQDFVNWLLAQK-NH2; N-terminus assumed)			no ag.
CC[C@H](C)[C@H](NC(=O)[C@H](CCCCN)NC(=O)[C@H](CC(=O)O)NC(=O)[C@H](CCSC)NC(=O)[C@H](C)NC(=O)[C@H](CCCCNC(=O)CCCCCCCCCCCCCCC(=O)O)NC(=O)[C@H](CO)NC(=O)[C@H](Cc1ccc(O)cc1)NC(=O)[C@H](CC(=O)O)NC(=O)[C@H](CO)NC(=O)[C@@H](NC(=O)[C@H](Cc1ccccc1)NC(=O)[C@@H](NC(=O)CNC(=O)[C@@H](N)CCC(=O)O)[C@@H](C)O)[C@@H](C)CC)C(=O)N[C@@H](Cc1c[nH]cn1)C(=O)N[C@@H](CCC(N)=O)C(=O)N[C@@H](CCC(N)=O)C(=O)N[C@@H](CC(=O)O)C(=O)N[C@@H](Cc1ccccc1)C(=O)N[C@H](C(=O)N[C@@H](CC(N)=O)C(=O)N[C@@H](Cc1c[nH]c2ccccc12)C(=O)N[C@@H](CC(C)C)C(=O)N[C@@H](CC(C)C)C(=O)N[C@@H](C)C(=O)N[C@@H](CCC(N)=O)C(=O)N[C@@H](CCCCN)C(N)=O)C(C)C [AT303, [hGIP(3-30)NH2[I12K]-C16diacid/12]] (H-EGTFISDYSK(C16 diacid)AMDKIHQQDFVNWLLAQK-NH2; N-terminus assumed)	24.2	28	
